Where two headings read alike, the source gives them in different places.
Assay: everolimus arterial tissue concentration in and next to the stented vessel
Format: in vivo, swine
Conditions: for Tmax: pig; for concentration at 3 days / concentration at 7 days / concentration at 28 days / concentration at 56 days / concentration at 90 days / concentration at 14 days: swine
[1] = 8×28 mm stent, 1070 μg everolimus (first aspect, matches group 1)
[2] = 10×28 mm stent, 1070 μg everolimus
[3] = 1070 μg, 8.0×28 mm stent, group 2, 1070 μg Lot #2, read-out: drug concentration in tissue proximal to stented region
[4] = 3209 μg, 8.0×28 mm stent, group 3, 3209 μg, read-out: drug concentration in tissue distal to stented region
[5] = 3209 μg, 8.0×28 mm stent, group 3, 3209 μg, read-out: drug concentration in tissue proximal to stented region
[6] = arterial tissue distal to stented region (unstented), 1070 μg, 10.0×28 mm stent, 1070 μg, read-out: drug concentration in tissue distal to stented region
[7] = arterial tissue of stented region, 1070 μg, 8.0×28 mm stent, group 2, 1070 μg Lot #2, read-out: drug concentration in tissue of stented region
[8] = arterial tissue of stented region, 1070 μg, 10.0×28 mm stent, 1070 μg, read-out: drug concentration in tissue of stented region
[9] = arterial tissue of the stented region, other: drug-eluting stent implanted in iliofemoral arteries, 1070 μg, 10.0×28 mm stent, 1070 μg, read-out: drug concentration in tissue of stented region
[10] = arterial tissue proximal to stented region (unstented), 1070 μg, 10.0×28 mm stent, 1070 μg, read-out: drug concentration in tissue proximal to stented region
[11] = arterial tissue, distal stented region (D), 7.0×100 mm stent, read-out: Mean Arterial Tissue Concentration, D distal stented region
[12] = arterial tissue, medial stented region (C), 7.0×100 mm stent, read-out: Mean Arterial Tissue Concentration, C medial stented region
[13] = arterial tissue, proximal stented region (B), 7.0×100 mm stent, read-out: Mean Arterial Tissue Concentration, B proximal stented region
[14] = arterial tissue, stented region, 3209 μg, 8.0×28 mm stent, group 3, 3209 μg, read-out: drug concentration in tissue of stented region
[15] = arterial tissue, unstented segment distal to stented region, 1070 μg, 8.0×28 mm stent, group 2, 1070 μg Lot #2, read-out: drug concentration in tissue distal to stented region
[16] = other: drug-eluting stent implanted in iliofemoral arteries, 1070 μg, 10.0×28 mm stent, 1070 μg, read-out: drug concentration in tissue distal to stented region
[17] = other: drug-eluting stent implanted in iliofemoral arteries, 1070 μg, 10.0×28 mm stent, 1070 μg, read-out: drug concentration in tissue proximal to stented region

With `CO[C@H]1C[C@@H]2CC[C@@H](C)[C@@](O)(O2)C(=O)C(=O)N2CCCC[C@H]2C(=O)O[C@H]([C@H](C)C[C@@H]2CC[C@@H](OCCO)[C@H](OC)C2)CC(=O)[C@H](C)/C=C(\C)[C@@H](O)[C@@H](OC)C(=O)[C@H](C)C[C@H](C)/C=C/C=C/C=C/1C` [everolimus, 40-O-(2-hydroxyethyl)-rapamycin] the “tissue Cmax” value (7×100 mm stent, 3777 μg everolimus) was no less than 16347 ng/g, the “tissue Cmax” value [1] was no less than 12946 ng/g and the “tissue Tmax” value [1] was 72 h. For the same molecule, the “tissue Cmax” value (8×28 mm stent, 1070 μg everolimus (second aspect, matches group 2)) was no less than 8709 ng/g, the “tissue Cmax” value (8×28 mm stent, 3209 μg everolimus) was no less than 22027 ng/g and the “tissue Cmax” value [2] was no less than 6607 ng/g. The “tissue Tmax” value [2] was 72 h, the Tmax (arterial tissue of the stented vessel, 1070 ug, 8×28 mm stent, 1070 μg everolimus (second aspect, matches group 2)) was 72 h and the Tmax (arterial tissue of the stented vessel, 3209 ug, 8×28 mm stent, 3209 μg everolimus) was 72 h. The Tmax (arterial tissue, 3777 ug, 7×100 mm stent, 3777 μg everolimus) was 72 h, the concentration at 3 days [3] was 533 ng/g and the concentration at 7 days [3] was 104 ng/g. It also gave a concentration at 28 days [3] of 50 ng/g, a concentration at 56 days [3] of 10 ng/g and a concentration at 90 days [3] of 16 ng/g. The concentration at 3 days [4] was 856 ng/g, the concentration at 3 days [5] was 520 ng/g and the concentration at 7 days [4] was 910 ng/g. It also gave a concentration at 7 days [5] of 698 ng/g, a concentration at 14 days [4] of 1120 ng/g and a concentration at 14 days [5] of 307 ng/g. The concentration at 28 days [4] was 414 ng/g, the concentration at 28 days [5] was 136 ng/g and the concentration at 90 days [4] was 63 ng/g. The concentration at 90 days [5] was 55 ng/g, the concentration at 7 days [6] was 208 ng/g and the concentration at 14 days [6] was 251 ng/g. For the same molecule, the concentration at 28 days [6] was 86 ng/g, the concentration at 3 days [7] was 8710 ng/g and the concentration at 7 days [7] was 3590 ng/g. It also gave a concentration at 28 days [7] of 1850 ng/g, a concentration at 56 days [7] of 2190 ng/g and a concentration at 90 days [7] of 1270 ng/g. It also gave a concentration at 14 days [8] of 4140 ng/g, a concentration at 28 days [8] of 3930 ng/g and a concentration at 3 days [9] of 6610 ng/g. For the same molecule, the concentration at 7 days [9] was 5100 ng/g, the concentration at 90 days [9] was 2300 ng/g and the concentration at 14 days [10] was 40 ng/g. The concentration at 28 days [10] was 12 ng/g, the concentration at 3 days [11] was 12400 ng/g and the concentration at 7 days [11] was 9630 ng/g. The concentration at 14 days [11] was 6530 ng/g, the concentration at 28 days [11] was 4280 ng/g and the concentration at 90 days [11] was 2400 ng/g. It also gave a concentration at 3 days [12] of 16300 ng/g, a concentration at 7 days [12] of 11400 ng/g and a concentration at 14 days [12] of 5240 ng/g. The concentration at 28 days [12] was 4150 ng/g, the concentration at 90 days [12] was 2700 ng/g and the concentration at 3 days [13] was 10900 ng/g. It also gave a concentration at 7 days [13] of 7890 ng/g, a concentration at 14 days [13] of 4820 ng/g and a concentration at 28 days [13] of 3620 ng/g. It also gave a concentration at 90 days [13] of 2210 ng/g, a concentration at 3 days [14] of 22000 ng/g and a concentration at 7 days [14] of 17200 ng/g. For the same molecule, the concentration at 14 days [14] was 16500 ng/g, the concentration at 28 days [14] was 13200 ng/g and the concentration at 90 days [14] was 2460 ng/g. For the same molecule, the concentration at 3 days [15] was 1550 ng/g, the concentration at 7 days [15] was 435 ng/g and the concentration at 28 days [15] was 73 ng/g. It also gave a concentration at 56 days [15] of 25 ng/g, a concentration at 90 days [15] of 11 ng/g and a concentration at 3 days [16] of 278 ng/g. For the same molecule, the concentration at 3 days [17] was 100 ng/g, the concentration at 7 days [17] was 37 ng/g and the concentration at 90 days [16] was 8 ng/g. The concentration at 90 days [17] was 7 ng/g, the concentration at 3 days (7.0×100 mm stent, read-out: Mean Arterial Tissue Concentration, A non-stented region proximal to stented region) was 269 ng/g and the concentration at 3 days (7.0×100 mm stent, read-out: Mean Arterial Tissue Concentration, E non-stented region distal to stented region) was 263 ng/g.
